Data from patent US9763451B2, “Method for improved use of the production potential of genetically modified plants” (Bayer Intellectual Property GmbH, priority 2008, dated 2017).

How the values were obtained:
Type in all cases: in vivo
Aphis gossypii [1] = assay: Aphis gossypii test (foliar application) on genetically modified cotton; conditions: 20 ppm
Text: (§1) A synergistic effect in insecticides and acaricides is always present when the action of the active compound combinations exceeds the total of the actions of the active compounds when applied individually.
(§2) The expected action for a given combination of two active compounds can be calculated as follows, using the formula of S. R. Colby, Weeds 15 (1967), 20-22:
(§3) • X is the kill rate, expressed as % of the untreated control, when employing active compound A at an application rate of m g/ha or in a concentration of m ppm, • Y is the kill rate, expressed as % of the untreated control, when employing the transgenic seed and • E is the kill rate, expressed as % of the untreated control, when employing the active compound A at application rates of m g/ha or in a concentration of m ppm and the transgenic seed, then
(§4) If the actual insecticidal kill rate exceeds the calculated value, the action of the combination is superadditive, i.e. a synergistic effect is present. In this case, the actually observed kill rate must exceed the value calculated using the above formula for the expected kill rate (E).
(§5) Individual potted genetically modified cotton plants with Lepidoptera resistance and Glyphosate resistance are treated with the desired product against the cotton aphid (Aphis gossypii).
(§6) After the desired period of time, the kill in % is determined. 100% means that all the aphids have been killed; 0% means that none of the aphids have been killed.

Aphis gossypii [2] = assay: Aphis gossypii test (drench application) on genetically modified cotton; conditions: 0.8 ppm
Text: as §1, §2, §3, §4, §5, §6

Spodoptera frugiperda = Spodoptera frugiperda test (foliar application) on genetically modified maize; conditions: compound alone, 100 ppm
Text: as §1, §2, §3, §4
Pots with in each case 5 genetically modified maize plants with Lepidoptera, Coleoptera and/or herbicide resistances are treated in 2 replications against the armyworm (Spodoptera frugiperda).
After the desired period of time, the kill in % is determined. […]

[3] = combined with cotton plant containing cry gene and Glyphosate resistance gene, expected kill

CC(c1ccc(C(F)(F)F)nc1)S(C)(=O)=NC#N (stereo not shown) [compound I-8]
Kill in % after 1d, found (Aphis gossypii [1]; combined with cotton plant containing cry gene (Lepidoptera resistance) and Glyphosate resistance gene, after 1 d): 85%
Kill in % after 1d, calc. (Colby formula) (Aphis gossypii [1]; [3]): 65%
Kill in % after 1d (Aphis gossypii [1]; active compound alone, after 1 d): 65%
Kill in % after 2d, found (Aphis gossypii [2]; combined with cotton plant containing cry gene (Lepidoptera resistance) and Glyphosate resistance gene, after 2 d): 90%
Kill in % after 2d, calc. (Colby formula) (Aphis gossypii [2]; [3]): 70%
Kill in % after 2d (Aphis gossypii [2]; active compound alone, after 2 d): 70%
Kill in % after 4d (Spodoptera frugiperda): 0%
